According to ChEMBL document CHEMBL1132073, “Synthesis of novel 4'-C-methyl-pyrimidine nucleosides and their biological activities” (Bioorg Med Chem Lett, 1999):
Values after ≈ are worked out from the molar mass of the structure shown.

Experiments:
CCRF-HSB-2 = test: Compound was evaluated for the cytotoxicity against human T-cell leukemia, CCRF-HSB-2 by using MTT assay.; type: functional, cell-based
Human alphaherpesvirus 1 = test: Compound was evaluated for the antiviral activity against Herpes simplex virus type 1 (HSV-1) VR-3 strain by using plaque reduction assay.; type: functional; settings: read-out: ED50 (the source's name)
Human alphaherpesvirus 3 = test: Compound was evaluated for the antiviral activity against Varicella-Zoster virus (VZV) Oka strain by using plaque reduction assay.; type: functional; settings: read-out: ED50 (the source's name)
Human alphaherpesvirus 2 = test: Compound was evaluated for the antiviral activity against Herpes simplex virus type 2 (HSV-2) MS strain by using plaque reduction assay.; type: functional; settings: read-out: ED50 (the source's name)

Compound: C[C@]1(CO)O[C@@H](n2cc(/C=C/Br)c(=O)[nH]c2=O)CC1O (single isomer, unassigned)
- IC50 (CCRF-HSB-2): 0.45 µg/mL (≈ 1.3 µM)
- EC50 (Human alphaherpesvirus 1): 0.0053 µg/mL (≈ 0.0153 µM)
- EC50 (Human alphaherpesvirus 3): 0.00077 µg/mL (≈ 0.00222 µM)
- EC50 (Human alphaherpesvirus 2): 0.26 µg/mL (≈ 0.749 µM)

Compound: C[C@@]1(CO)O[C@H](n2ccc(N)nc2=O)C[C@H]1O
- IC50 (CCRF-HSB-2): 0.12 µg/mL (≈ 0.497 µM)
- EC50 (Human alphaherpesvirus 1): 0.071 µg/mL (≈ 0.294 µM)
- EC50 (Human alphaherpesvirus 3): 0.094 µg/mL (≈ 0.39 µM)
- EC50 (Human alphaherpesvirus 2): 0.27 µg/mL (≈ 1.12 µM)

Compound: C[C@]1(CO)OC(n2cc(/C=C/Br)c(=O)[nH]c2=O)[C@H](O)[C@@H]1O (stereo not given in full)
- IC50 (CCRF-HSB-2): > 100 µg/mL
- EC50 (Human alphaherpesvirus 1): 24.4 µg/mL (≈ 67.2 µM)
- EC50 (Human alphaherpesvirus 3): 0.18 µg/mL (≈ 0.496 µM)
- EC50 (Human alphaherpesvirus 2): 63.5 µg/mL (≈ 175 µM)

Compound: O=c1[nH]c(=O)n([C@@H]2O[C@H](CO)[C@@H](O)[C@H]2O)cc1/C=C/Br
- IC50 (CCRF-HSB-2): > 100 µg/mL
- EC50 (Human alphaherpesvirus 1): 0.048 µg/mL (≈ 0.137 µM)
- EC50 (Human alphaherpesvirus 3): 0.00083 µg/mL (≈ 0.00238 µM)
- EC50 (Human alphaherpesvirus 2): 62 µg/mL (≈ 178 µM)

Compound: O=c1[nH]c(=O)n([C@H]2C[C@H](O)[C@@H](CO)O2)cc1/C=C/Br [BRIVUDINE]
- IC50 (CCRF-HSB-2): > 100 µg/mL
- EC50 (Human alphaherpesvirus 1): 0.052 µg/mL (≈ 0.156 µM)
- EC50 (Human alphaherpesvirus 3): 0.013 µg/mL (≈ 0.039 µM)
- EC50 (Human alphaherpesvirus 2): > 100 µg/mL
